Measured values from patent US6399580B1, “Methods and compositions for stimulating tissue growth and epithelial moisturization” (The Regents of the University of California, priority 1994, dated 2002).
Where “and” joins values, the source holds several entries; their conditions need not be identical. Equal entries are not always repeated.

How the values were obtained:
[1] = test system: murine epidermis; experiment: Epidermal DNA synthesis, [3H]-thymidine incorporation in vivo; design: species or system mouse
Procedure: To assess the effects of a topical β-glucocerebrosidase inhibitor, conduritol-B-epoxide (CBE) in epidermal DNA synthesis two slightly different dosage protocols have been employed. In all cases, mice were treated topically with 20 μl to 40 μl of 250 nmol/μl CBE bid for 2-5 days on the right flank. On the last day, the mice were injected intraperitoneally with ^3H-thymidine (1 μCi/G body weight) diluted 1:10 in 100-200 μl isotonic NaCl. After one hour the mice were sacrificed. Whole skin was excised and subcutaneous fascia and fat were removed by scraped. Skin samples were placed dermis side downward onto 10 mM EDTA in phosphate buffered saline (PBS-CMF; pH 7.4) and incubated at 37° C. for 40 min. The skin was blotted dry with a tissue and epidermis removed by scraping with a surgical blade. The epidermis was minced into small pieces and placed in microcentrifuge vials. Samples were immediately snap frozen and stored in liquid nitrogen until immediately prior to preparation of the epidermal homogenates. 300 μl of 10 mM EDTA in PBS-CMF (pH 7.4) was added to all samples which then underwent tissue homogenization using Polytron (15 sec, ×2 on ice. Polytron tip was rinsed between each homogenization with 400 μl 10 mM EDTA in PBS-CMF. Rinses were combined with same original samples. Samples were sonicated twice for 10 sec on ice. 100 μl of 20% TCA was added and left for 10 min at 4° C. Samples were centrifuged at 2000×g at 4° C. for 5 min. The supernatant was discarded. 500 μl of 5% TCA was added and the samples were centrifuged at 2000×g at 4° C. for 5 min. The supernatant was discarded and this step was repeated again. The precipitate was resuspended in 1ml of 1N NaOH and vortexed. 400 μl or NaOH plus 400 μl of 1N HCl with 8ml Ecolume was used as a background blank. Vials were counted the following day.
We next determined whether the topical administration of structurally similar but less efficient β-glucosidase inhibitors would induce epidermal hyperproliferation. Animals were treated topically twice daily with either Conduritol-B-epoxide, Conduritol B (CB), or deoxynojirimycin (dNJM), each at 40 μl of 250 nmol/μl twice daily, as described in Example 10. After 24 hours, [^3H]-thymidine was injected intraperitoneally and incorporation of thymidine into DNA was determined (FIG. 26 A&B). […] This reduced activity is a result of the relative availability of these inhibitors to in vivo tissues.
Animals were treated as described in Example 10.
We next determined whether occlusion with a vapor-impermeable membrane would enhance the effects of a β-glucocerebrosidase inhibitor on epidermal DNA synthesis. […] After 24 hrs animals were injected with [^3H]-thymidine, and incorporation into DNA was determined (Proksch, et. al., J. Clin. Invest. 87:1668-1673, 1991).

[2] = test system: acetone treated skin sites; experiment: Barrier recovery of acetone treated skin sites; type: in vivo, mouse; settings: MUX 0.5 or 1.0 %(wt:vol) topical
[3] = test system: cultured human keratinocytes; experiment: [3H]-thymidine incorporation and DNA content in cultured human keratinocytes; type: cell-based; settings: for DNA content / thymidine incorporation: 24 hours of treatment, Cer 5 or 10 μM, FIG. 9
Procedure: To determine the ability of exogenous glucosylceramides (GlcCER) to stimulate epidermal proliferation, we applied various concentrations of GlcCER to cultural human keratinocytes (third passage). Keratinocytes were isolated from human neonatal foreskins by a modification of the method of Pittelkow, M. R. and Scott, R. E. ( (1986) Proc. Mayo Clin. 61:771-777) Cells were added to 100 mm plastic Petri dishes at a density of 1 to 2×10^4 cells/cm^2, and grown initially in 10mls of Keratinocyte Growth Medium (KGM) (Clonetics, San Diego, Calif.) with 0.07 mM calcium. The cultures were maintained at 35° C. under 5% CO2 in air, with medium changes performed three times weekly. After the cells reached 70%-80% confluence, they were switched to KGM medium containing 1.2 mM calcium, and harvested at one week post-confluence. GlcCER was added for the last 24 hours of culture and ^3H-thymidine (1 μCi/ml) was added one-to-three hours prior to harvesting of cells for measurement of DNA synthesis and DNA content. (Proksch, E., et al., J. Clin. Invest. 87:1668-1673 (1991).
Using the method described in Example 5, incorporation of [^3H]-thymidine and total DNA content were measured in cultured human keratinocytes (CHK) grown in serum-free keratinocyte growth medium (KGM) supplemented with 0.07 mM .calcium. Cultured cell were further supplemented as indicated, with ceramide (Cer; 5 or 10 μM), glucosylceramide (GlcCER; 1.25 or 2.5 μM), or a combination of ceramide and glucosylceramide (10 and 1.25 μM, respectively).
(§1) CHK cells were grown in serum-free KGM supplemented both with 0.07 mM calcium and 10 μM ceramide (CER). Increasing concentrations of glucosylceramide were added (2.5 to 10 μM), and both [^3H]-thymidine (1 μCi/ml) and [^14C]-leucine (1 μCi/ml) incorporation assays were performed.
CHK cells were grown (as in Example 6)in serum-free KGM (0.07 mM calcium) and supplemented with increasing concentrations of ceramide (CER) alone (dark bars), glucosylceramide (GlcCer) alone (back row), or the combination of ceramide (10 μM) with increasing glucosylceramide (front row). […] Glucosylceramide alone again stimulated thymidine incorporation (>20%) at low concentrations (1.25 and 2.5 μM).
CHK cells were grown (as in Example 6) in serum-free KGM ([…]) supplemented with glucosylceramide (GlcCER) alone, or in combination with the β-glucocerebrosidase-inhibitor, CBE (3 or 10 μM) (FIG. 12). Incorporation of [^3H]-thymidine was measured at 24 hours following supplementation, and values are reported as percent of unsupplemented controls (mean ±S.D.; n>6). […] A low CBE concentration (3 μM) was ineffective.

[4] = test system: CHK cells; experiment: [14C]-leucine incorporation in CHK cells; type: cell-based, human; settings: GlcCER 2.5 and 5.0 μM with 10 μM ceramide; FIG. 10
Procedure: as §1

[5] = topical 40 μl of 250 nmol/μl twice daily, after 24 hours
[6] = direct application of lipid alone, treated as in Example 10, FIG. 26B
[7] = GlcCER 1.25 μM, 24 hours, NHK cells, n=6±S.E.

Molecule: O[C@H]1[C@H](O)[C@@H](O)C=C[C@@H]1O [CB, Conduritol B]
- epidermal DNA synthesis ([3H]-thymidine incorporation) [1, 5]: Neither CB or dNJM at this concentration induced an increase in DNA synthesis

Molecule: Cc1cc(=O)oc2cc(O[C@@H]3OC[C@@H](O)[C@H](O)[C@H]3O)ccc12 [MUX, 4-methylumbelliferyl xyloside]
- barrier-disrupting effect [2]: comparable to the two conduritol is compounds (BrCBE and CBE)
- barrier recovery ([2]; at 2, 4 and 6 hours): delayed barrier recovery

Molecule: OC[C@H]1NC[C@H](O)[C@@H](O)[C@@H]1O [dNJM, deoxynojirimycin]
- epidermal DNA synthesis ([3H]-thymidine incorporation) [1, 5]: Neither CB or dNJM at this concentration induced an increase in DNA synthesis

Molecule: ceramide
- DNA content ([3]; GlcCER 1.25 μM): corresponding decrease in DNA content
- thymidine incorporation ([3]; GlcCER 1.25 μM): inhibited thymidine incorporation
- [3H]-thymidine incorporation, of control ([3]; ceramide alone 10 μM, FIG. 11): 35 % of control
- inhibition of [3H]-thymidine incorporation ([3]; ceramide alone 10 μM, FIG. 11): approximately 65%
- epidermal DNA synthesis ([3H]-thymidine incorporation) [1, 6]: Neither GalCER nor ceramide (CER) alone at this concentration (c.f. structures in FIGS. 4 and 6) induced an increase

Molecule: galactosylceramide [GalCER]
- epidermal DNA synthesis ([3H]-thymidine incorporation) [1, 6]: Neither GalCER nor ceramide (CER) alone at this concentration (c.f. structures in FIGS. 4 and 6) induced an increase

Molecule: glucosylceramide [GlcCER]
- keratinocyte proliferation, further increase ([3]; 5 μM): No further increase
- DNA content ([3]; GlcCER 1.25 μM): increased
- thymidine incorporation ([3]; GlcCER 1.25 μM): increased
- thymidine incorporation, increase over ceramide alone ([3]; GlcCER 1.25 μM co-administered with ceramide 10 μM, 24 hours): approximately 2 fold
- DNA Content (% of Control) [3, 7]: 124 ± 2 % of Control and 111 ± 6 % of Control
- ^3H]-Thym. Incorporation (% of control) [3, 7]: 118 ± 0.5 % of control and 117 ± 2.0 % of control
- override of the ceramide effect on thymidine incorporation ([3]; GlcCER 10 μM with 10 μM ceramide): did not override the ceramide effect
- thymidine incorporation relative to ceramide-containing control ([3]; GlcCER 2.5 and 5.0 μM with 10 μM ceramide, FIG. 10): stimulated
- concentration of maximum effect on keratinocyte proliferation ([3]; cultured human keratinocytes, 24 hours): 1.25 µM
- inhibitory effect of ceramide on thymidine incorporation ([3]; glucosylceramide 1.25 μM coadministered with ceramide 10 μM): reversed
- stimulation of thymidine incorporation ([3]; glucosylceramide alone, 1.25 and 2.5 μM): > 20%
- proliferation rates ([3]; higher concentrations of GlcCER (above 1.25 and 2.5 μM)): decreased
- leucine incorporation [4]: not altered
- epidermal DNA synthesis, combination of GlcCER with CBE ([1]; FIG. 26B): additive effect
- epidermal DNA synthesis ([3H]-thymidine incorporation) [1, 6]: significant increase
